# Experimental data: patent US8598122B2, “Antagonistic peptides for frizzled-1 and frizzled-2” (Universiteit Maastricht, priority 2009, dated 2013)
# Where a SMILES comes first, the peptide text is derived from it.
# How the values were obtained:
# [1] = target: T1, mouse Fzd-1 (Mus musculus, UniProt O70421); test: Antagonism of Wnt3a activation of mouse Fzd-1 (data not shown); type: cell-based
# T1 construct: expressed in transfected cells
# From the text: In FIG. 3, Panel E, the efficacy of UM206 to block the Wnt3a-induced activation of luciferase activity in HEK293 superTOPflash cells transfected with different Fzds is shown.
# [2] = system: canonical Wnt/Fzd-1/2 signaling; test: TOPflash experiments in CHO and COS-7 cells overexpressing rFzd-1 or -2; type: cell-based
# From the text: Three areas of high homology that contained two cysteines are underlined (UM207), (UM208) and (UM206). In FIGS. 9B through 9D, the inhibitory effect of these three peptides on Wnt3a-induced luciferase activity in HEK293-superTOPflash is shown. […] Again, the peptides by themselves had no effect on the luciferase activity.
# For the luciferase experiments not in HEK cells, the cells were additionally transfected with a TOPflash construct, eight TCF/LEF binding sites cloned into the pTA-Luc vector. Luciferase activity was measured using luciferase assay system (Promega, Madison Wis., USA).
# [3] = Pharmacokinetics assay in mice
# Experimental: UM206 was injected into the femoral artery of Swiss mice (concentration of 10^−9 M). Blood was sampled at different time points in the femoral vein. On the y-axis, the concentration of UM206 in the plasma is shown. This is determined with HPLC and the area under the peak is calculated and shown on the y-axis. All values were corrected for the baseline value.
# In order to determine the pharmacokinetic properties of UM206, we injected 15 ng of the compound into the tail vein of mice and monitored the concentration in the blood at different time points.
# Male Swiss mice were used (10-12 weeks of age, Charles River, Maastricht, The Netherlands).
# Blood samples were collected from the animals for the pharmacokinetics and after 14 to 35 days treatment, to determine the concentration of UM206. Blood was centrifuged and the plasma was treated with 1% TFA.
# T1 sequence (O70421 69-642): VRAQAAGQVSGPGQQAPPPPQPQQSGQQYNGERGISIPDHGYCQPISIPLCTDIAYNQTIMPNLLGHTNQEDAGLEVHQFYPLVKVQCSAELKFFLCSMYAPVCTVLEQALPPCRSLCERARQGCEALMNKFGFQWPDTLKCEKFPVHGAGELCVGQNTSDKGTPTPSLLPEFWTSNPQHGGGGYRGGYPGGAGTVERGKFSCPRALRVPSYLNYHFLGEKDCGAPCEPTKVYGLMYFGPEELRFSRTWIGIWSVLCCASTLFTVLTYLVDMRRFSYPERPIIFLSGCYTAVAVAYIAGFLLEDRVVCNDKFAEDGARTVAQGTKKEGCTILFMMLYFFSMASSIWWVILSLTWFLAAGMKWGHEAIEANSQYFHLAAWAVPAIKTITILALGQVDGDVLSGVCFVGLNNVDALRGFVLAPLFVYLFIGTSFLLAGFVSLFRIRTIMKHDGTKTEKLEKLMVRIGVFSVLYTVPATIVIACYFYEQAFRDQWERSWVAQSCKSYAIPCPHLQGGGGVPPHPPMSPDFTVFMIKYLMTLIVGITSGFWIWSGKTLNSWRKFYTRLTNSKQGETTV
compound,measurement,setting,value
"CSCC[C@H](NC(=O)CNC(=O)[C@H](CCC(=O)O)NC(=O)[C@H](CO)NC(=O)[C@@H](NC(=O)[C@H](CCCCN)NC(=O)[C@H](CC(N)=O)NC(=O)[C@H](CS)NC(C)=O)[C@@H](C)O)C(=O)N[C@@H](CC(=O)O)C(=O)NCC(=O)N[C@@H](CS)C(=O)N[C@@H](CCC(=O)O)C(=O)N[C@@H](CC(C)C)C(N)=O [UM206, Ac-Cys-Asn-Lys-Thr-Ser-Glu-Gly-Met-Asp-Gly-Cys-Glu-Leu-NH2] (Ac-CNKTSEGMDGCEL-NH2)",Antagonizing activation of mouse Fzd-1 by Wnt3a,[1],fully effective
same,Blocking of canonical Wnt/Fzd-1/2 signaling in two other cell lines,[2],selectively block
same,half-life,"[3]; 15 ng into the tail vein of mice, HPLC, n=24",83.5 min
same,half-life,"[3]; male, Swiss, mouse, plasma",~90 min
same,half-life,"[3]; male, Swiss, mouse, plasma, intravenous, 15 ng",83.5 ± 1.63 min
